Measurements as given in patent US20130096119A1, “Isoquinolin-3-Ylurea Derivatives” (priority 2010, published 2013).
≈ marks a conversion by molar mass, not a printed value.

Tested on: S. pneumoniae ATCC 49619
Assay: Minimal inhibitory concentration (MIC) by microdilution method (CLSI M7-A7)
Format: cell-based, Streptococcus pneumoniae
Details: for MIC: Streptococcus pneumoniae, ATCC49619, cation-adjusted Mueller-Hinton Broth supplemented with 3% (v/v) lysed horse blood; for MIC for S. pneumoniae ATCC 49619: cation-adjusted Mueller-Hinton Broth supplemented with 3% (v/v) lysed horse blood
Experimental: Minimal inhibitory concentrations (MICs; mg/l) were determined in cation-adjusted Mueller-Hinton Broth (supplemented with 3% (v/v) lysed horse blood for testing Streptococcus pneumoniae) by a microdilution method following the description given in “Methods for Dilution Antimicrobial Susceptibility Tests for Bacteria that Grow Aerobically”, Approved standard, 7th ed., Clinical and Laboratory Standards Institute (CLSI) Document M7-A7, Wayne, Pa., USA, 2006.

Compound	MIC	MIC for S. pneumoniae ATCC 49619
CCNC(=O)Nc1cc2cccc(Nc3nnc(C)o3)c2cn1 [Example 154, 1-ethyl-3-[8-(5-methyl-[1,3,4]oxadiazol-2-ylamino)-isoquinolin-3-yl]-urea]	8 µg/mL (≈ 25.6 µM)	–
CCNC(=O)Nc1cc2cccc(Nc3cncnc3)c2cn1 [Example 149, 1-ethyl-3-[8-(pyrimidin-5-ylamino)-isoquinolin-3-yl]-urea]	2 µg/mL (≈ 6.49 µM)	–
CCNC(=O)Nc1cc2c(F)ccc(-c3ccc(C(=O)O)cc3)c2cn1 [Example 74, 4-[3-(3-ethyl-ureido)-5-fluoro-isoquinolin-8-yl]-benzoic acid]	2 µg/mL (≈ 5.66 µM)	–
CCNC(=O)Nc1cc2cccc(Nc3ccc(C)nc3)c2cn1.Cl [Example 164, 1-ethyl-3-[8-(6-methyl-pyridin-3-ylamino)-isoquinolin-3-yl]-urea hydrochloride]	2 µg/mL	–
CCNC(=O)Nc1cc2c(CNC)ccc(Nc3cccc(OC)n3)c2cn1 [Example 271, 1-ethyl-3-{8-[(6-methoxy-pyridin)-2-ylamino]-5-[(methylamino)methyl]-isoquinolin-3-yl}-urea]	–	4 µg/mL
CCNC(=O)Nc1cc2cccc(Nc3cnccn3)c2cn1 [Example 148, 1-ethyl-3-[8-(pyrazin-2-ylamino)-isoquinolin-3-yl]-urea]	2 µg/mL (≈ 6.49 µM)	–
CCNC(=O)Nc1cc2c(-c3cccnn3)ccc(C)c2cn1.Cl [Example 282, 1-ethyl-3-(8-methyl-5-pyridazin-3-yl-isoquinolin-3-yl)-urea hydrochloride]	8 µg/mL	–
CCNC(=O)Nc1cc2cccc(Nc3cccc(C)n3)c2cn1.Cl [Example 155, 1-ethyl-3-[8-(6-methyl-pyridin-2-ylamino)-isoquinolin-3-yl]-urea hydrochloride]	2 µg/mL	–
CCNC(=O)Nc1cc2cccc(Cn3ccnc3)c2cn1 [Example 299, 1-ethyl-3-(8-imidazol-1-ylmethyl-isoquinolin-3-yl)-urea]	4 µg/mL (≈ 13.5 µM)	–
1-ethyl-3-[8-(5-hydroxymethyl-imidazol-1-ylmethyl)-isoquinolin-3-yl]-urea and 1-ethyl-3-[8-(4-hydroxymethyl-imidazol-1-ylmethyl)-isoquinolin-3-yl]-urea [Example 293]	–	4 µg/mL
CCNC(=O)Nc1cc2cccc(COc3cccc(O)c3)c2cn1.Cl [Example 213, 1-ethyl-3-[8-(3-hydroxy-phenoxymethyl)-isoquinolin-3-yl]-urea hydrochloride]	4 µg/mL	–
CCNC(=O)Nc1cc2c(-c3ccnc(OC)c3)ccc(Nc3cccnc3)c2cn1 [Example 225, 1-ethyl-3-[5-(2-methoxy-pyridin-4-yl)-8-(pyridin-3-ylamino)-isoquinolin-3-yl]urea]	0.125 µg/mL (≈ 0.302 µM)	–
CCNC(=O)Nc1cc2cccc(Nc3cc(F)ccn3)c2cn1.Cl [Example 158, 1-ethyl-3-[8-(4-fluoro-pyridin-2-ylamino)-isoquinolin-3-yl]-urea hydrochloride]	2 µg/mL	–
CCNC(=O)Nc1cc2cc(-c3cccc(CO)c3)cc(C)c2cn1 [Example 19, 1-ethyl-3-[6-(3-hydroxymethyl-phenyl)-8-methyl-isoquinolin-3-yl]-urea]	1 µg/mL (≈ 2.98 µM)	–
CCNC(=O)Nc1cc2cccc(Nc3ccc(C(=O)O)cc3)c2cn1 [Example 202, 4-[3-(3-ethyl-ureido)-isoquinolin-8-ylamino]-benzoic acid]	1 µg/mL (≈ 2.85 µM)	–
CCNC(=O)Nc1cc2c(-c3ccc(S(N)(=O)=O)cc3)ccc(Nc3cccnc3)c2cn1 [Example 230, 4-[3-(3-ethyl-ureido)-8-(pyridin-3-ylamino)-isoquinolin-5-yl]-benzenesulfonamide]	0.5 µg/mL (≈ 1.08 µM)	–
CCNC(=O)Nc1cc2cccc(Nc3cccc(C(=O)OC)c3)c2cn1 [Example 176, 3-[3-(3-ethyl-ureido)-isoquinolin-8-ylamino]-benzoic acid methyl ester]	2 µg/mL (≈ 5.49 µM)	–

Compound	MIC	MIC for S. pneumoniae ATCC 49619
CCNC(=O)Nc1cc2c(-c3ccc(C(=O)O)cc3)cccc2cn1 [Example 124, 4-[3-(3-ethyl-ureido)-isoquinolin-5-yl]-benzoic acid]	4 µg/mL (≈ 11.9 µM)	–
CCNC(=O)Nc1cc2cccc(COc3cccnc3C)c2cn1.Cl [Example 259, 1-ethyl-3-[8-(2-methyl-pyridin-3-yloxymethyl)-isoquinolin-3-yl]-urea hydrochloride]	4 µg/mL	–
CCNC(=O)Nc1cc2cc(NCc3ccnc(N4CCOCC4)c3)cc(C)c2cn1 [Example 185, 1-ethyl-3-{8-methyl-6-[(2-morpholin-4-yl-pyridin-4-ylmethyl)-amino]-isoquinolin-3-yl}-urea]	4 µg/mL (≈ 9.51 µM)	–
CCNC(=O)Nc1cc2c(-c3cccnc3)ccc(Oc3cccnc3)c2cn1 [Example 223, 1-ethyl-3-[5-pyridin-3-yl-8-(pyridin-3-yloxy)-isoquinolin-3-yl]-urea]	0.5 µg/mL (≈ 1.3 µM)	–
CCNC(=O)Nc1cc2cc(-c3cccnc3Cl)cc(C)c2cn1 [Example 82, 1-[6-(2-chloro-pyridin-3-yl)-8-methyl-isoquinolin-3-yl]-3-ethyl-urea]	8 µg/mL (≈ 23.5 µM)	–
CCNC(=O)Nc1cc2cccc(Nc3ccccc3)c2cn1 [Example 169, 1-ethyl-3-(8-phenylamino-isoquinolin-3-yl)-urea]	1 µg/mL (≈ 3.26 µM)	–
CCNC(=O)Nc1cc2cccc(CNc3cc(C)on3)c2cn1.Cl [Example 301, 1-ethyl-3-{8-[(5-methyl-isoxazol-3-ylamino)-methyl]-isoquinolin-3-yl}-urea hydrochloride]	4 µg/mL	–
CCNC(=O)Nc1cc2c(F)c(NCc3ccccc3)cc(C)c2cn1 [Example 57, 1-(6-benzylamino-5-fluoro-8-methyl-isoquinolin-3-yl)-3-ethyl-urea]	0.5 µg/mL (≈ 1.42 µM)	–
CCNC(=O)Nc1cc2c(-c3ccnc(C)c3)ccc(Nc3cccnc3)c2cn1 [Example 229, 1-ethyl-3-[5-(2-methyl-pyridin-4-yl)-8-(pyridin-3-ylamino)-isoquinolin-3-yl]-urea]	0.25 µg/mL (≈ 0.627 µM)	–
CCNC(=O)Nc1cc2c(-c3cn[nH]c3)ccc(C)c2cn1.Cl [Example 281, 1-ethyl-3-[8-methyl-5-(1H-pyrazol-4-yl)-isoquinolin-3-yl]urea hydrochloride]	0.5 µg/mL	–
CCNC(=O)Nc1cc2cccc(-c3ccc(C(=O)O)cc3)c2cn1 [Example 123, 4-[3-(3-ethyl-ureido)-isoquinolin-8-yl]-benzoic acid]	4 µg/mL (≈ 11.9 µM)	–
CCNC(=O)Nc1cc2c(-c3cncc(C)c3)ccc(C)c2cn1 [Example 10, 1-ethyl-3-[8-methyl-5-(5-methyl-pyridin-3-yl)-isoquinolin-3-yl]-urea]	2 µg/mL (≈ 6.24 µM)	–
CCNC(=O)Nc1cc2c(-c3ccccc3)cccc2cn1 [Example 43, 1-ethyl-3-(5-phenyl-isoquinolin-3-yl)-urea]	8 µg/mL (≈ 27.5 µM)	–
CCNC(=O)Nc1cc2cccc(Nc3cccc(CC(=O)O)c3)c2cn1 [Example 209, {3-[3-(3-ethyl-ureido)-isoquinolin-8-ylamino]-phenyl}-acetic acid]	4 µg/mL (≈ 11 µM)	–
CCNC(=O)Nc1cc2c(CN3CCOCC3)ccc(Nc3cccc(OC)n3)c2cn1 [Example 275, 1-ethyl-3-{8-[(6-methoxy-pyridin-2-yl)amino]-5-(morpholin-4-ylmethyl)-isoquinolin-3-yl}-urea]	4 µg/mL (≈ 9.16 µM)	–
CCNC(=O)Nc1cc2c(-c3c[nH]cn3)ccc(Cl)c2cn1 [Example 288, 1-[8-chloro-5-(1H-imidazol-4-yl)-isoquinolin-3-yl]-3-ethyl-urea]	2 µg/mL (≈ 6.33 µM)	–
CCNC(=O)Nc1cc2c(Br)ccc(OC)c2cn1 [Example 73, 1-(5-bromo-8-methoxy-isoquinolin-3-yl)-3-ethyl-urea]	8 µg/mL (≈ 24.7 µM)	–
